“And” between values parts separate entries of the source, which are not always exact repeats. Identical values can stand only once. The source made the active and inactive calls.
Columns and labels:
Cytochrome P450 3A4 = Cytochrome P450 3A4 (Homo sapiens, UniProt P08684); details: Potency;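 further: confirmatory qHTS run detecting inhibitors and substrates of CYP3A4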
Cytochrome P450 2C9 = Cytochrome P450 2C9 (Homo sapiens, UniProt P11712); details: Potency
[1] = target: Glyceraldehyde-3-phosphate dehydrogenase (Homo sapiens, UniProt P04406)
[2] = target: T1, Alkaline phosphatase, tissue-nonspecific isozyme (Homo sapiens, UniProt P05186); assay: potency against alkaline phosphatase TNAP – biochemical, luminescent, dose response, SAR follow-up (AID 1056)
T1 sequence (P05186 whole entry): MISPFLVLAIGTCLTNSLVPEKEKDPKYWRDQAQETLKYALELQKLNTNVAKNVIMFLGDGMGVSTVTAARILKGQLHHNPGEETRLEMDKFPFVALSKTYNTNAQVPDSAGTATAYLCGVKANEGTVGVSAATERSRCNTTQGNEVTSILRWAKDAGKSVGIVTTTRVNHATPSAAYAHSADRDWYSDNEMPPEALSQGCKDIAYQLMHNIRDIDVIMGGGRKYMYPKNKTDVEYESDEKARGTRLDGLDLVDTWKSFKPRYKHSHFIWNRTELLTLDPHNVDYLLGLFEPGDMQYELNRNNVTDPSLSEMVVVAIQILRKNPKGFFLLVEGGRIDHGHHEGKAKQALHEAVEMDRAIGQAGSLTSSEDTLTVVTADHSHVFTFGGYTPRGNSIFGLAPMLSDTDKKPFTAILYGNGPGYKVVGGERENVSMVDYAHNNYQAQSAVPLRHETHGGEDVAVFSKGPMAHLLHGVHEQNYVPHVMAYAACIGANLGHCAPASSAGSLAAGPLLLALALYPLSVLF

[3] = target: T2, RNA-binding protein pos-1 (Caenorhabditis elegans, UniProt G5EF15); assay: disruptors of C. elegans POS-1 RNA interaction – biochemical, fluorescence polarization, dose response (AID 1964);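 further: purified POS-1 fused to maltose binding protein made in E. coli; potency of compounds blocking POS-1 binding to fluorescent RNA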
T2 sequence (G5EF15 whole entry): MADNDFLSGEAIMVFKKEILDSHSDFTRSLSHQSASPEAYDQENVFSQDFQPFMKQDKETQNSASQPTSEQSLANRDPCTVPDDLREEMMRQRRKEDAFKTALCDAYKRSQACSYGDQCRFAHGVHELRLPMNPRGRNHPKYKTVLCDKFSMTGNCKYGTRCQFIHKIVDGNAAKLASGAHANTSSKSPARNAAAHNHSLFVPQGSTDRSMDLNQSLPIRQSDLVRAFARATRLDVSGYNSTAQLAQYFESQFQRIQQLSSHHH

[4] = target: T3, Zinc finger protein mex-5 (Caenorhabditis elegans, UniProt Q9XUB2); assay: potency of MEX-5 RNA-binding blockers – biochemical, C. elegans, fluorescence polarization, dose response (AID 1960)
T3 sequence (Q9XUB2 whole entry): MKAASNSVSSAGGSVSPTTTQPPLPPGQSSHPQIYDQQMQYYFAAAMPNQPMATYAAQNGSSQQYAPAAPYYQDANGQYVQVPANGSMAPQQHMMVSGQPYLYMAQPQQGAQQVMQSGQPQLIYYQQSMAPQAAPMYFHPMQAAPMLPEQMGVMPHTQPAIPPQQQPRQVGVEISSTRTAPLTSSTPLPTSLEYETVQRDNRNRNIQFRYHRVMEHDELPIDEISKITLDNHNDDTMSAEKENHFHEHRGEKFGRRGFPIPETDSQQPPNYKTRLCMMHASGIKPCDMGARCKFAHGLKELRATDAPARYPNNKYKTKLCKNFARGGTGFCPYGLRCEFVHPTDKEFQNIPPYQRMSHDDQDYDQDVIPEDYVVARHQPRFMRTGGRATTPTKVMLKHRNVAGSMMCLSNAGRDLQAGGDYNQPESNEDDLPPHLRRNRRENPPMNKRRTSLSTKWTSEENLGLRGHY

[5] = target: T4, Voltage-gated N-type calcium channel alpha-1B subunit/Amyloid beta A4 precursor protein-binding family A member 1 (Homo sapiens, UniProt Q00975+Q02410); format: protein assay
T4 sequence (Q00975 whole entry): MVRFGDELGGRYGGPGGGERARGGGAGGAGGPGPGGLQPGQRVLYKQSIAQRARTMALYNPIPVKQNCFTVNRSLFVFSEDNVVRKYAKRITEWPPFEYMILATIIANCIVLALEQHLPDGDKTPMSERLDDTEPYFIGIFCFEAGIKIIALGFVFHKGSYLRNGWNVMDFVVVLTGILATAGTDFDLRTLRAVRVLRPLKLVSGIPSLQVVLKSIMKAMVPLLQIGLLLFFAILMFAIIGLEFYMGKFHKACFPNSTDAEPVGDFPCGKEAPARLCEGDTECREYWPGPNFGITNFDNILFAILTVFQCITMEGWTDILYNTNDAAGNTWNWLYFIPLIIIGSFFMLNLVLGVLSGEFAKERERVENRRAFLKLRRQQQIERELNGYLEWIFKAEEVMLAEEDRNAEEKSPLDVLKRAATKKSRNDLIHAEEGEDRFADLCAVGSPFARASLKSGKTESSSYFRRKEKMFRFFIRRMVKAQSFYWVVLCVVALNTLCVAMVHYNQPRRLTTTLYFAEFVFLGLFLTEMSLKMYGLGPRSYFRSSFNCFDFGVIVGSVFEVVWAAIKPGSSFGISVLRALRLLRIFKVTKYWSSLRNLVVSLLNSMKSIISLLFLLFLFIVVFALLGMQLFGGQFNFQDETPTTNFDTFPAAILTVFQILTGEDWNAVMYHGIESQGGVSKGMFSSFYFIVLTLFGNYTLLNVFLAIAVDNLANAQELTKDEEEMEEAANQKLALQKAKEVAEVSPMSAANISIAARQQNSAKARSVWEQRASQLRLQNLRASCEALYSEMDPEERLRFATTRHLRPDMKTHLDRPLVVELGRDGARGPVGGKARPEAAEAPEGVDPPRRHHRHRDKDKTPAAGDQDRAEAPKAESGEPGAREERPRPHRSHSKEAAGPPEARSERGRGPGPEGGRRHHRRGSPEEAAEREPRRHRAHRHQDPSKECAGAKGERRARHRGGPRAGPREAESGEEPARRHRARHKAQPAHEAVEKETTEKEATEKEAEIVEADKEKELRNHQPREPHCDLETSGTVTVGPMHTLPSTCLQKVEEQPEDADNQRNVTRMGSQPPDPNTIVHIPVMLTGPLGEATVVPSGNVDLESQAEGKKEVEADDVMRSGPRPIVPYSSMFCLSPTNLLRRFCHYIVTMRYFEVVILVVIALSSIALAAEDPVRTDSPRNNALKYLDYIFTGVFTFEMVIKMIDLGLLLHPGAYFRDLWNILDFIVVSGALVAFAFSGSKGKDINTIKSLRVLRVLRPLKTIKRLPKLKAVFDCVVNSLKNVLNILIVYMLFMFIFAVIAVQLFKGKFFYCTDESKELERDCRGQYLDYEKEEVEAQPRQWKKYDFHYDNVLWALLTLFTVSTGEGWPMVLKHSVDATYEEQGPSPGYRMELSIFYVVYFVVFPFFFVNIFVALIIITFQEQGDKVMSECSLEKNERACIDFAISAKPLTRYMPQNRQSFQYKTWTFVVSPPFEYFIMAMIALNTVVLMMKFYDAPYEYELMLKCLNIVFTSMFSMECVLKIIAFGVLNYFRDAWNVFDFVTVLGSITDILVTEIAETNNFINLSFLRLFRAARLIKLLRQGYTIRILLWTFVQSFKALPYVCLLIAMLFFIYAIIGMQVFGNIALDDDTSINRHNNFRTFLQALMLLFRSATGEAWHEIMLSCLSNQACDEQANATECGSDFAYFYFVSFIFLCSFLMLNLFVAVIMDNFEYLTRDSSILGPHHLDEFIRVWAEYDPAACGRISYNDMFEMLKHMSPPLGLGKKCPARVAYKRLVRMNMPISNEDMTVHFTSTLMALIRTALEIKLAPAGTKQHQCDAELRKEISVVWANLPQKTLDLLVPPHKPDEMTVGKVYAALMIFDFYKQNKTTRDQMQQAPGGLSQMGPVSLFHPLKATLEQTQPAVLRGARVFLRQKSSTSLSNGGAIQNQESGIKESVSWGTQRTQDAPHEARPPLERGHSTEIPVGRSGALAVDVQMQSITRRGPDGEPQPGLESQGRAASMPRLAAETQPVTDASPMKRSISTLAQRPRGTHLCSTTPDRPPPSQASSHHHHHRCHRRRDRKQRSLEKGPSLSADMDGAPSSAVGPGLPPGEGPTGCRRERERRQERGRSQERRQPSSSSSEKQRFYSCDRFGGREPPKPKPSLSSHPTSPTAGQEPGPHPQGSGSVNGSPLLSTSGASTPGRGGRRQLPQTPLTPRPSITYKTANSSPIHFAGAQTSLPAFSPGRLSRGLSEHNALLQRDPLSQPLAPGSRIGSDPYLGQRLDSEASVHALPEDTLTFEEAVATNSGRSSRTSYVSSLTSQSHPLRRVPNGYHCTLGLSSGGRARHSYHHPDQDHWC
T4 sequence (Q02410 whole entry): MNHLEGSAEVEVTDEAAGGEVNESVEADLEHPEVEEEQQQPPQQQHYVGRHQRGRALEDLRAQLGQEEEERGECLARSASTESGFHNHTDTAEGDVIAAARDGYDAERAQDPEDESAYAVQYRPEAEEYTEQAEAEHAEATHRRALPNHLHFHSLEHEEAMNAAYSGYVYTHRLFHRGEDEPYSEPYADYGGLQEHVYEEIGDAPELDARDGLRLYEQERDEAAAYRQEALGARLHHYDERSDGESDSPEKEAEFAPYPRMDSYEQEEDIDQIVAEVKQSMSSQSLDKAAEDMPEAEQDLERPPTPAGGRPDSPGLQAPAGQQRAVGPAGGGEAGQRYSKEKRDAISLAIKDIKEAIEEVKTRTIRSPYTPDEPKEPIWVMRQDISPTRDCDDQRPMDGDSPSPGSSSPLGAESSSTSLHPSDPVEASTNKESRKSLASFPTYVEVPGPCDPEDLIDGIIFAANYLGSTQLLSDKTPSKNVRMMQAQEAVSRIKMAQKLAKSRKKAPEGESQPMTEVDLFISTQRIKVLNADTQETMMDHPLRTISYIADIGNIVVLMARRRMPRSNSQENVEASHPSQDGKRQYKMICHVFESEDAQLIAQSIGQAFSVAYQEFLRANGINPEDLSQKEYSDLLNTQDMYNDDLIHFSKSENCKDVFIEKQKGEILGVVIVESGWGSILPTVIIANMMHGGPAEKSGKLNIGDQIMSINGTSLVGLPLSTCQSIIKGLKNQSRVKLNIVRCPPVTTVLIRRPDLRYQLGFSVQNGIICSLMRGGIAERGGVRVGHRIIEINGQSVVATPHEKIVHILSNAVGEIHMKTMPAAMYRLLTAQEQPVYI

[6] = target: T4, Voltage-gated N-type calcium channel alpha-1B subunit/Amyloid beta A4 precursor protein-binding family A member 1; format: protein assay; remark: listed apart in the source
[7] = target: Induced myeloid leukemia cell differentiation protein Mcl-1 (Homo sapiens, UniProt Q07820); format: functional
Hexokinase HKDC1 = target: T5, Hexokinase HKDC1 (Homo sapiens, UniProt Q2TB90); assay: inhibition of HKDC1 glucose phosphorylation – biochemical, W721R variant, dose response (AID 504729); format: functional
T5 sequence (Q2TB90 whole entry): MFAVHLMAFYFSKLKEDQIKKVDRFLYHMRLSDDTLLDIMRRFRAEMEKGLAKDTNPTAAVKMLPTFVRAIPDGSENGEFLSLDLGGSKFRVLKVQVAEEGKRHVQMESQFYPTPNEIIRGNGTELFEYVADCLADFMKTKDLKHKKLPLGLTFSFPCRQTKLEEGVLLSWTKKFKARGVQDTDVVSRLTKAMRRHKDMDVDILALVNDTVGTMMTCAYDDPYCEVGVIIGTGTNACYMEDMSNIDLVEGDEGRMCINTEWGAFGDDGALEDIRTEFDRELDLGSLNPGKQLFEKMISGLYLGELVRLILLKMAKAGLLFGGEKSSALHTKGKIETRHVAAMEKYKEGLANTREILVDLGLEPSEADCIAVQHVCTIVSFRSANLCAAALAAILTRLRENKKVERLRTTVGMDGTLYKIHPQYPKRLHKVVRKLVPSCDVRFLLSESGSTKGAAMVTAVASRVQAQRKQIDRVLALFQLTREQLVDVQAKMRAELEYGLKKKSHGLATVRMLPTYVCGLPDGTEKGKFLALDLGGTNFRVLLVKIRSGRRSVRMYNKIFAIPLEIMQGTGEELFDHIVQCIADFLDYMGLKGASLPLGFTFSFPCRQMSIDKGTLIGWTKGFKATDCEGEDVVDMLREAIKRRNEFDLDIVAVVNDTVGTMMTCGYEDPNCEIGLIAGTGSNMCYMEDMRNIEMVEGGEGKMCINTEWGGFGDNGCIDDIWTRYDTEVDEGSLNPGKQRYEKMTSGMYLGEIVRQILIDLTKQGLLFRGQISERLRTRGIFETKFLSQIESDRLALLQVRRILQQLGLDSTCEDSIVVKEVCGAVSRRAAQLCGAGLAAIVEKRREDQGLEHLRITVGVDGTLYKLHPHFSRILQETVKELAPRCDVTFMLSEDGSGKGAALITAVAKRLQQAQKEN

Vero [8] = assay: viability of Vero cells under compound – cytotoxicity control for flavivirus capping enzyme inhibitors (AID 588742); format: functional; details: Chlorocebus sabaeus
Vero [9] = assay: cells; format: functional; details: Chlorocebus sabaeus
Genome polyprotein = Genome polyprotein (dengue virus type 2, UniProt P29990); assay: flavivirus cap methylation enzyme inhibition – biochemical, confirmation dose response, primary screen (AID 588689); format: functional
[10] = target: T6, Polyadenylate-binding protein 1 (Homo sapiens, UniProt P11940); assay: MLLE binding blockers, Cy5 peptide tracer – biochemical, fluorescence polarization, Cy5-PAM2 peptide, secondary, miRNA deadenylation inhibitor project, dose response (AID 602260); format: functional; details: read-out: IC50_Mean
T6 sequence (P11940 whole entry, the tested form may be a part): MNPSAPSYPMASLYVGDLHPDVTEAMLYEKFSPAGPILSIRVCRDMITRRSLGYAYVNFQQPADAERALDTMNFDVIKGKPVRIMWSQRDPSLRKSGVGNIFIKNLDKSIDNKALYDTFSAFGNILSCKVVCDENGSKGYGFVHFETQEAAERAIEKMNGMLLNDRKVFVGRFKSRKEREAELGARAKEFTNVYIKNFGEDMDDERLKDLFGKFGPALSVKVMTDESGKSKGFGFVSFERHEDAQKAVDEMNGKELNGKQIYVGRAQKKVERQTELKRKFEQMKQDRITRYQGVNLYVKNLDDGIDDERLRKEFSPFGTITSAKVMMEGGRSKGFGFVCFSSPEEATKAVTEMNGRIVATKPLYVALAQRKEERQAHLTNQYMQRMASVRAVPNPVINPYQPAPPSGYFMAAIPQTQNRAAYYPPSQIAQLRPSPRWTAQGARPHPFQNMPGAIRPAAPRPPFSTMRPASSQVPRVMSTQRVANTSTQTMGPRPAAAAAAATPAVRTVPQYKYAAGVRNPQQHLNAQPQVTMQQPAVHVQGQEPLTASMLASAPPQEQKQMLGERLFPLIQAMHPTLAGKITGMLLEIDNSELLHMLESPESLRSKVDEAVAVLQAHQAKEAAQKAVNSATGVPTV

[11] = target: T6, Polyadenylate-binding protein 1; assay: MLLE domain peptide-binding blockers, IC50 – biochemical, fluorescence polarization, FITC-PAM2 peptide, dose response (AID 602259); format: functional; details: read-out: IC50_Mean
[12] = target: T7, Histone-lysine N-methyltransferase NSD2 (Homo sapiens, UniProt O96028); format: biochemical
T7 sequence (O96028 whole entry): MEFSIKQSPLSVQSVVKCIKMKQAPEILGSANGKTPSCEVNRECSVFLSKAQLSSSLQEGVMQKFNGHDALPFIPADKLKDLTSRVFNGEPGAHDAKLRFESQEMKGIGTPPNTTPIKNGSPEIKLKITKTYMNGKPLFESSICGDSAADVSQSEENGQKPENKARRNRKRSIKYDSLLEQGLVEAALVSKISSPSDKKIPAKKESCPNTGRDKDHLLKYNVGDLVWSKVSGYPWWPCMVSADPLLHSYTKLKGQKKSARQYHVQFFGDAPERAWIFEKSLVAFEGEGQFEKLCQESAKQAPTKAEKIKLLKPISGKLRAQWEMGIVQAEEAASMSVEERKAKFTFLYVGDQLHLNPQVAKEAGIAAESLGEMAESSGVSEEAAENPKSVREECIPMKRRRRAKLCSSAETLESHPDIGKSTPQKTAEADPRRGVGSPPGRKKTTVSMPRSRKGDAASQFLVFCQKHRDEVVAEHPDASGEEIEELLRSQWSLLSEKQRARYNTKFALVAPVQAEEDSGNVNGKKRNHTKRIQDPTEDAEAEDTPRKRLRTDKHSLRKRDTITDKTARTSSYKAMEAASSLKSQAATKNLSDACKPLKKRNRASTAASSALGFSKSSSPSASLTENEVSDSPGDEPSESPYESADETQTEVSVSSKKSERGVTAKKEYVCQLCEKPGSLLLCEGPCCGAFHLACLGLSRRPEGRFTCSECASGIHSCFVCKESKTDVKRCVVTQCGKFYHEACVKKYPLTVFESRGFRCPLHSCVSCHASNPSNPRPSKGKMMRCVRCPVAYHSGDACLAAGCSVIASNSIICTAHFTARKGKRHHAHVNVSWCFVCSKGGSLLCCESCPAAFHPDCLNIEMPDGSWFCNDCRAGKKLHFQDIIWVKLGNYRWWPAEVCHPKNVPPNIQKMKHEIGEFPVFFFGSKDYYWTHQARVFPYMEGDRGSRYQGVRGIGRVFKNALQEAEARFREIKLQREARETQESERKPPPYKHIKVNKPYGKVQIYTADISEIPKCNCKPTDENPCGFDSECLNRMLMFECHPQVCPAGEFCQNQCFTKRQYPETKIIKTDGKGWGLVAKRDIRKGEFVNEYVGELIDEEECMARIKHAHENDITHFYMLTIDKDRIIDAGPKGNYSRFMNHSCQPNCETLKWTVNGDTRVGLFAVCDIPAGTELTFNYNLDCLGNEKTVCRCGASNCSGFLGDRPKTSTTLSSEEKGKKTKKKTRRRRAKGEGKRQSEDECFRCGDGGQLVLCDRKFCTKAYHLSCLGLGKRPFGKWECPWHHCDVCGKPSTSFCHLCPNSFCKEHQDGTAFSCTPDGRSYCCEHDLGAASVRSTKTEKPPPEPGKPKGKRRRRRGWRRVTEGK

Chain of Cytochrome P450 3A4 (P08684 whole entry): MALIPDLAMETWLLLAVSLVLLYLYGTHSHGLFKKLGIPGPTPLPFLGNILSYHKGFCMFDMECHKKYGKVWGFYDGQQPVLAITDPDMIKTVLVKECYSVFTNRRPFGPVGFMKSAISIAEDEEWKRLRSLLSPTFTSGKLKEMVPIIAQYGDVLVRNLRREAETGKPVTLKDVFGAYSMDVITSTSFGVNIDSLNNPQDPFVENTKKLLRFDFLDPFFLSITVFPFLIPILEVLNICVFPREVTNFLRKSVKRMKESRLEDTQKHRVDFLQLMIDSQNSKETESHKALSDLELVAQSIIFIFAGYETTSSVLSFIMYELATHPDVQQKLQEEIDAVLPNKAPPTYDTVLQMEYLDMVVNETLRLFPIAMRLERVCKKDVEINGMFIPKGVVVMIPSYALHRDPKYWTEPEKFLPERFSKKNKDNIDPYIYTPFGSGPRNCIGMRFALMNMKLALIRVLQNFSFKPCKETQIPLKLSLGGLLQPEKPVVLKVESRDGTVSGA
Chain of Cytochrome P450 2C9 (P11712 whole entry): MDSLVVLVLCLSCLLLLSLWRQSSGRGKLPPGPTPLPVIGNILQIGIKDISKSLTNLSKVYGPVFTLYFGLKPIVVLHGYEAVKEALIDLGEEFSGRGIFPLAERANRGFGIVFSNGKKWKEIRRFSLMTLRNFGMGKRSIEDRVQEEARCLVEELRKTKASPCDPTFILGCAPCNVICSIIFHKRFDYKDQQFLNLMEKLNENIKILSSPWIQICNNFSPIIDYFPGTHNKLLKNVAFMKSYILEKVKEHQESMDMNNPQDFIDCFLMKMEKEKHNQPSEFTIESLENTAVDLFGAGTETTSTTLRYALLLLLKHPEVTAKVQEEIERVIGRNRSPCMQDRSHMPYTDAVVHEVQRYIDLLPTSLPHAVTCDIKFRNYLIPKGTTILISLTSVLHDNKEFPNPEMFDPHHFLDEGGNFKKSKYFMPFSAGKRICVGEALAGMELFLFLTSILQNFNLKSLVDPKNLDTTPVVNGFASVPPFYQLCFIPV

COc1ccc(OC2C(O)COC2/C=C/c2ccccc2)cc1 (stereo unspecified)
AC50 (Cytochrome P450 3A4): 3.16 µM (inconclusive) and 3.98 µM (inconclusive)
AC50 (Cytochrome P450 2C9): 3.16 µM (inconclusive) and 2.51 µM (inconclusive)

COC(=O)c1ccc(OC)c(S(=O)(=O)Nc2ccc3ccccc3c2)c1
IC50 [1]: > 10 µM (inconclusive)
IC50 [2]: > 10 µM (inactive)

CCN(CC)Cc1cc(O)c(CN(CC)CC)cc1O
EC50 [3]: 14.2 µM (active)
EC50 [4]: 2.77 µM (active)
IC50 [5]: > 56.8 µM (not active)
IC50 [6]: 2.05 µM (active)
IC50 [7]: 1.58 µM (active)
IC50 (Hexokinase HKDC1): 17.4 µM (active)
CC50 (Vero [8]): > 40 µM (active)
CC50 (Vero [9]): > 25 µM (active)
IC50 (Genome polyprotein): 28.1 µM (active)
IC50 [10]: > 66 µM (inactive)
IC50 [11]: > 66 µM (inactive)
AC50 [12]: > 20 µM (inactive)

From ChEMBL document CHEMBL1201862, “PubChem BioAssay data set” (2004)
